One experiment concerns H. influenzae ATCC 10211. The experiment can be described thus: Antibiotic susceptibility test (broth microdilution MIC). The experiment is classed as cell-based. To be noted: Haemophilus influenzae, ATCC10211, read-out: Minimal inhibitory concentration. The procedure: (§1) Antimicrobial susceptibility testing was performed by broth microdilution in cation-adjusted Mueller–Hinton broth (CAMHB) according to the CLSI guidelines. Overnight culture was suspended in CAMHB, and the OD625 was measured using an Ultrospec 6300 pro spectrophotometer (GE Healthcare). The culture suspension was diluted to 0.01 of the OD625, and 5 μL of it was inoculated into test medium containing the test chemical. Then incubation was performed at 35°C for 16 to 20 hours. The final inoculum size corresponded to ca. 5 x 10^4 CFU per well, which corresponded to ca. 5 x 10^5 CFU/mL. The minimum inhibitory concentration (MIC) endpoint was defined as the lowest concentration of the test chemical that inhibited bacterial growth as detected by the unaided eye.

In another experiment the test system is S. pneumoniae Type I. The experiment is described as above. The experiment is classed as cell-based. The following applies: Streptococcus pneumoniae, read-out: Minimal inhibitory concentration. The procedure:
as §1

For the next experiment, the system named is E. faecium SR7917 (VRE). The experiment is described as above. The experiment is classed as cell-based. The following applies: Enterococcus faecium, VRE, read-out: Minimal inhibitory concentration. As to the method: as §1
The test system of another experiment is E. faecalis SR7914 (VRE). Described as above. The experiment is classed as cell-based. To be noted: Enterococcus faecalis, VRE, read-out: Minimal inhibitory concentration. As to the method:
as §1

For the next experiment, the system named is E. coli ATCC 25922. The description is as above. It is filed as cell-based. To be noted: Escherichia coli, ATCC25922, read-out: Minimal inhibitory concentration. As to the method:
as §1

The subject of the next experiment is S. aureus SR3637 (MRSA). The description is as above. It is filed as cell-based. The following applies: Staphylococcus aureus, MRSA, read-out: Minimal inhibitory concentration. As to the method: as §1
The next experiment relates to A. baumannii ATCC 19606. The experiment is described as above. The experiment is classed as cell-based. The following applies: Acinetobacter baumannii, ATCC19606, read-out: Minimal inhibitory concentration. The procedure:
as §1

The next experiment relates to P. aeruginosa ATCC 27853. The experiment is described as above. The experiment is classed as cell-based. To be noted: Pseudomonas aeruginosa, ATCC27853, read-out: Minimal inhibitory concentration. The procedure: as §1
For the next experiment, the system named is E. faecium ATCC 19434. Described as above. The experiment is classed as cell-based. To be noted: Enterococcus faecium, ATCC19434, read-out: Minimal inhibitory concentration. As to the method: as §1
In the next experiment the test system is E. faecalis ATCC 29212. The experiment is described as above. The experiment is classed as cell-based. To be noted: Enterococcus faecalis, ATCC29212, read-out: Minimal inhibitory concentration. As to the method:
as §1

A further experiment has as its system K. pneumoniae ATCC 13883. The experiment is described as above. It is filed as cell-based. The following applies: Klebsiella pneumoniae, ATCC13883, read-out: Minimal inhibitory concentration. As to the method: as §1
In experiment [1] the test system is S. aureus ATCC 29213 (MSSA). The experiment is described as above. The experiment is classed as cell-based, Staphylococcus aureus. The following applies: Staphylococcus aureus, read-out: Minimal inhibitory concentration. As to the method: as §1
Experiment [2] has as its system S. aureus FtsZ (FtsZ^K175D_N-terminal-EGFP and FtsZ_C-terminal-mCherry). The experiment can be described thus: FCCS screening for inhibition of GTP-dependent head-to-tail dimerization of fragmented FtsZ. The experiment is classed as biochemical, Staphylococcus aureus. To be noted: from FCCS binding ratio; chemical 20 or 100 μM, GTP 2 mM, 30 min; mean (SD), n = 3. As to the method: The purified FtsZ^K175D_N-terminal-EGFP and FtsZ_C-terminal-mCherry were mixed in 0.44–0.85 μM each in a buffer composed of 50 mM Tris-HCl [pH 8.0], 500 mM Na2SO4 and 5 mM MgCl2. Mixed samples were dispensed as 48.5 μL aliquots into a 384-well glass bottom microplate (Olympus) and a 0.5 μL aliquot of the chemical at a concentration of 2 or 10 mM was added to each well. The final concentration of the chemicals was 20 or 100 μM. After mixing, FCCS measurement was performed (premeasurement, data not shown). After premeasurement of FCCS, 1 μL of GTP (100 mM) was added to each well (final concentration: 2 mM). After mixing and 30 min incubation at room temperature, FCCS measurement was performed. Using samples purified on a different day, independent screening was performed 3 times.
The data acquired from FCCS were analyzed using ZEN software (Zeiss, Germany). The fluorescence autocorrelation functions from the green, G G (τ), and red channels, G R (τ), and the fluorescence cross-correlation functions, G C (τ) were calculated according to the normalized correlation function. GG(τ)=1+⟨δIG(t)⋅δIG(t+τ)⟩/⟨IG(t)⟩⋅⟨IG(t)⟩ (1) GR(τ)=1+⟨δIR(t)⋅δIR(t+τ)⟩/⟨IR(t)⟩⋅⟨IR(t)⟩ (2) GC(τ)=1+⟨δIG(t)⋅δIR(t+τ)⟩/⟨IG(t)⟩⋅⟨IR(t)⟩ (3) where τ denotes the time delay, I G is the fluorescent intensity of the green channel, and I R is the fluorescent intensity of the red channel. The acquired autocorrelations were fitted using a two-component model, and cross-correlation was fitted using a one-component model. G(τ)=1+1−Ftriplet+Ftripletexp(−τ/τtrplet)/N(1−Ftriplet)×((Ffast/1+τ/τfast)1/1+τ/s^2τfast+(Fslow/1+τ/τslow)1/1+τ/s^2τslow) (4) where F triplet is the average fraction of triplet state molecules (in the fitting of cross-correlation, assuming F triplet is 0), τ triplet is the triplet relaxation time, and F fast and F slow are the fractions of the fast and slow components, respectively. τ fast and τ slow are the diffusion times of the fast and slow components, respectively. In the fitting of G G (τ), τ fast was fixed in the range from 100 to 200 μs. In the fitting of G R (τ), τ fast was fixed in the range from 200 to 300 μs. N is the average number of fluorescent particles in the excitation-detection volume defined by radius w, z is half of the long axis of the confocal volume element, and s is the structural parameter representing the ratio s = z/w. The values of w i (i = G or R) are determined from the diffusion coefficients of the rhodamine 6G and Alexa Fluor 594 used as standard dyes, respectively.
The average number calculated from autocorrelation N G and N R and complex cross-correlated particles N C is given by NG=1/GG(0)−1 (5) NR=1/GR(0)−1 (6) NC=GC(0)−1/(GR(0)−1)⋅(GG(0)−1) (7)
The binding ratio (BR), which directly indicates the tendency of interaction between FtsZ^K175D_N-terminal-EGFP and FtsZ_C-terminal-mCherry, was defined by the following Eq (8). When a chemical has a higher inhibitory effect, BR should be lower. BR=NC/NG (8)
Moreover, inhibition % was calculated using the following Eq (9). The inhibition % should be higher when the chemical has a higher inhibitory effect. inhibition%=BRDMSO,GTP(+)−BRchemical,GTP(+)/BRDMSO,GTP(+)×100 (9) where BR DMSO,GTP(+) is the binding ratio in the presence of DMSO (vehicle) and GTP is the control value indicating no inhibition, BR chemical,GTP(+) is the binding ratio in the presence a chemical and GTP. Considering the background, Eq (9) can be shown as follows. inhibition%=(BRDMSO,GTP(+)−BRbackground)−(BRchemical,GTP(+)−BRbackground)/BRDMSO,GTP(+)−BRbackground×100=BRDMSO,GTP(+)−BRchemical,GTP(+)/BRDMSO,GTP(+)−BRbackground×100 (10) where BR background is the binding ratio of the background obtained in the absence of GTP.

In experiment [3] the test system is panel of type strains of Gram-positive and Gram-negative bacterial pathogens. In words: Antibiotic susceptibility test, summary over the whole panel. The experiment is classed as cell-based. To be noted: MIC panel of Gram-positive and Gram-negative type strains. As to the method:
as §1

The source of these data is PMC4496089, “Screening for FtsZ Dimerization Inhibitors Using Fluorescence Cross-Correlation Spectroscopy and Surface Resonance Plasmon Analysis” (PLoS ONE, 2015).

Converted amounts (≈) assume the structure as drawn. “Also recorded” adds a separate entry of the source. Bounds are passed on as bounds.

Take `COCCN(CCOC)P1(=O)C=C(c2ccccc2)SC(c2ccccc2)=C1` [Chemical #2]: the MIC in the experiment on H. influenzae ATCC 10211 was above 64 µg/mL; in the experiment on S. pneumoniae Type I, 64 µg/mL (≈ 154 µM); with E. faecium SR7917 (VRE), above 64 µg/mL; in the experiment on E. faecalis SR7914 (VRE) it was 32 µg/mL (≈ 77 µM); in the experiment on E. coli ATCC 25922, above 64 µg/mL; in the experiment on S. aureus SR3637 (MRSA), 8 µg/mL (≈ 19.3 µM). Moreover, the MIC with A. baumannii ATCC 19606 was above 64 µg/mL; in the experiment with P. aeruginosa ATCC 27853 it was above 64 µg/mL; in the experiment on E. faecium ATCC 19434, above 64 µg/mL; in the experiment on E. faecalis ATCC 29212, 32 µg/mL (≈ 77 µM); in the experiment on K. pneumoniae ATCC 13883, above 64 µg/mL; in experiment [1], 8 µg/mL (≈ 19.3 µM). Moreover, the inhibition % in experiment [2] is recorded as 69.0 (2.4) %. For the same compound, in experiment [3], the “antibacterial activity (in words)” value is “inhibited the growth of Staphylococcus spp. and Enterococcus spp; also recorded: no activity against other Gram-positive species or any of the Gram-negative pathogens tested”.
